≈ marks a conversion by molar mass, not a printed value.
Assays:
[1] = Aqueous solubility of the compound; type: physicochemical; settings: buffer
[2] = Permeability of the compound by PAMPA; type: ADME
[3] = Lipophilicity, log D of compound at pH 7.4; settings: buffer
[4] = (§1) Oral bioavailability in Sprague-Dawley rat at 3 mg/kg administered as single cassette dose by LC-MS/MS analysis; type: ADME, organism-based; settings: Sprague-Dawley, in vivo
Rattus norvegicus [5] = experiment: Dose normalized AUC in Sprague-Dawley rat at 3 mg/kg, po administered as single cassette dose by LC-MS/MS analysis; type: ADME, organism-based; settings: in vivo
[6] = Clearance in Sprague-Dawley rat at 1 mg/kg, iv administered as single cassette dose by LC-MS/MS analysis; type: ADME, organism-based; settings: in vivo
Blood = experiment: tissue or blood; settings: Homo sapiens
Rattus norvegicus [7] = experiment: as §1; type: ADME, organism-based; settings: in vivo
PBMC = experiment: cells; settings: Homo sapiens
[8] = Oral bioavailability in Sprague-Dawley rat at 3 mg/kg administered as single cassette dose measured over 8 hrs by LC-MS/MS analysis; type: ADME, organism-based; settings: in vivo
Rattus norvegicus [9] = experiment: Dose normalized AUC in Sprague-Dawley rat at 3 mg/kg, po administered as single cassette dose measured over 8 hrs by LC-MS/MS analysis; type: ADME, organism-based; settings: in vivo
[10] = Clearance in Sprague-Dawley rat at 1 mg/kg, iv administered as single cassette dose measured over 8 hrs by LC-MS/MS analysis; type: ADME, organism-based; settings: in vivo
[11] = target: T1, MAP kinase-activated protein kinase 2 (Homo sapiens, UniProt P49137); experiment: Inhibition of human MK2 using hsp27 peptide biotinyl-AYSRALSRQLSSGVSEIRCOOH as substrate after 45 mins by TR-FRET assay
[12] = target: T1, MAP kinase-activated protein kinase 2; experiment: Inhibition of MK2 in anisomycin-stimulated human THP1 cells assessed as reduction in hsp27 phosphorylation at Ser78 by FACS analysis

T1 sequence (P49137 whole entry): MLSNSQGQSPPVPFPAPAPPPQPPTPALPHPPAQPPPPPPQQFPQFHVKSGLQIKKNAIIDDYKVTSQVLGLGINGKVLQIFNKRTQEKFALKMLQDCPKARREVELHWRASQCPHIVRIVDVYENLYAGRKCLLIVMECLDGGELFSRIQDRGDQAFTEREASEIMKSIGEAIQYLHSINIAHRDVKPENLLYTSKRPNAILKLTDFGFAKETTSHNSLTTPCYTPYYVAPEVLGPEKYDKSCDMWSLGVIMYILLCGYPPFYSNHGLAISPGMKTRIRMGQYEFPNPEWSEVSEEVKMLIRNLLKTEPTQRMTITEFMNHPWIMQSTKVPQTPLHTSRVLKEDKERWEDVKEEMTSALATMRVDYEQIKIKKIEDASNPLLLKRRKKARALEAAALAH

SMILES | solubility [1] [µg/mL] | log(permeability) [2] | logD [3] | bioavailability [4] [%] | AUC/dose (Rattus norvegicus [5]) [nmol·h/L] | clearance [6] [mL/min/kg] | IC50 (Blood) [nM] | F (Rattus norvegicus [7]) [%] | bioavailability [8] [%] | AUC/dose (Rattus norvegicus [9]) [nmol·h/L] | clearance [10] [mL/min/kg] | IC50 [11] [nM] | IC50 [12] [nM] | IC50 (PBMC) [nM]
CN1CC2(CNC(=O)c3c2[nH]c2c3CCc3cnc(-c4cccc(F)c4)c(F)c3-2)C1 | 4 (≈ 9.84 µM) | -4.1 | 3.2 | 81 | 3486 | 11 | 1650 |  |  |  |  |  |  | 550
COc1ccc(-c2ncc3c(c2F)-c2[nH]c4c(c2CC3)C(=O)NCC42CN(C)C2)cc1F |  | -4.5 | 3.3 | 60 | 1301 | 20 | 800 |  |  |  |  |  |  | 240
COc1ccc(-c2ncc3c(c2F)-c2[nH]c4c(c2CC3)C(=O)NCC42CN(C)C2)cn1 |  | -4.8 | 2.8 | 77 | 1766 | 19 | 590 |  |  |  |  | < 3 | 480 | 490

Further lines, with some results ahead:

solubility [1] [µg/mL] | log(permeability) [2] | logD [3] | bioavailability [4] [%] | AUC/dose (Rattus norvegicus [5]) [nmol·h/L] | clearance [6] [mL/min/kg] | IC50 (Blood) [nM] | F (Rattus norvegicus [7]) [%] | bioavailability [8] [%] | AUC/dose (Rattus norvegicus [9]) [nmol·h/L] | clearance [10] [mL/min/kg] | IC50 [11] [nM] | IC50 [12] [nM] | SMILES | IC50 (PBMC) [nM]
32 (≈ 82.4 µM) | -5.2 | 3.4 | 27 | 121 | 100 | 670 |  |  |  |  |  |  | CN1CC2(CNC(=O)c3c2[nH]c2c3CCc3cnc(-c4cccc(F)c4)cc3-2)C1 | 
 | -4.6 |  |  | 2154 | 30 |  | 151 |  |  |  |  |  | CN1CC2(CNC(=O)c3c2[nH]c2c3CCc3cnc(-c4cccc(F)c4)nc3-2)C1 | 
 | -3.9 | 3.7 |  |  |  |  |  | 53 | 2415 | 10 |  |  | CN1CC2(CNC(=O)c3c4c(n(C)c32)-c2cc(-c3cccc(Cl)c3)ncc2CC4)C1 | 

Source: ChEMBL document CHEMBL4251742, “Modulating ADME Properties by Fluorination: MK2 Inhibitors with Improved Oral Exposure” (ACS Med Chem Lett, 2018)
